Legend:
KGN [1] = assay: Induction of estrogen biosynthesis in human KGN cells assessed as upregulation of E2 concentration at 25 uM preincubated for 24 hrs followed by testosterone addition for 24 hrs by magnetic particle based ELISA; type: functional
KGN [2] = assay: Induction of estrogen biosynthesis in human KGN cells assessed as upregulation of E2 concentration preincubated for 24 hrs followed by testosterone addition for 24 hrs by magnetic particle based ELISA; type: functional, cell-based
KGN [3] = assay: Upregulation of aromatase expression in human KGN cells at 10 to 50 uM after 24 hrs by Western blot analysis; type: functional

Structure (SMILES)	fold change (FC) (KGN [1])	Activity (KGN [2])	EC50 (KGN [2]) [µM]	fold change (FC) (KGN [3])
CC(=O)CC[C@@]1(C)[C@H](C)CC[C@@]2(C)C(CO)=CCC[C@H]12	2	Dose-dependent effect	8	1.5
COc1cc(/C=C/C(=O)OC[C@H]2O[C@@H](O[C@@H]3OC=C[C@@]4(O)[C@H](O)C[C@](C)(OC(C)=O)[C@@H]34)[C@H](O)[C@@H](O)[C@@H]2O)cc(OC)c1O	2	Dose-dependent effect	11.1	1.5

Source: ChEMBL document CHEMBL4477157, “Iridoid Glucosides and Diterpenoids from Caryopteris glutinosa” (J Nat Prod, 2016)
